Organism: Rattus norvegicus
Assay: Open TG-GATES - Regimen: Single
Assay type: toxicity, organism-based, Sprague-Dawley
Parameters: regimen Single, gender Male, age 6 weeks
Conditions: in vivo, po, 75 mg/kg, route gavage, dose level Low; for APTT / Bas / Eos / Fbg / Hb / Ht / Lym / MCH / MCHC / MCV / Mono / Neu / PT / Plat / RBC / Ret / WBC: tissue Blood; for KIDNEY_L / KIDNEY_R / KIDNEY_TOTAL: tissue Kidney; for LIVER: tissue Liver; for A/G / ALP / ALT / AST / BUN / CRE / Ca / Cl / DBIL / GLC / IP / K / LDH / Na / PL / RALB / TBIL / TC / TG / TP / gamma-GTP: tissue Plasma

SMILES: CN(C/C=C/C#CC(C)(C)C)Cc1cccc2ccccc12 [TERBINAFINE]
- TERMINAL_BW (3 h): 225.9 g
- APTT (3 h): 19.4 s
- Bas (3 h): 0.8%
- Eos (3 h): 1%
- Fbg (3 h): 219 mg/dL
- Hb (3 h): 13.2 g/dL
- Ht (3 h): 39.1%
- Lym (3 h): 82.2%
- MCH (3 h): 21.2 pg
- MCHC (3 h): 33.8%
- MCV (3 h): 62.7 fL
- Mono (3 h): 2.2%
- Neu (3 h): 14%
- PT (3 h): 12 s
- Plat (3 h): 116.2 x10_4/uL
- RBC (3 h): 625.2 x10_4/ul
- Ret (3 h): 7.3%
- WBC (3 h): 88.5 x10_2/uL
- KIDNEY_L (3 h): 1 g
- KIDNEY_R (3 h): 1 g
- KIDNEY_TOTAL (3 h): 2 g
- LIVER (3 h): 10.4 g
- A/G (3 h): 1.6
- ALP (3 h): 998 IU/L
- ALT (3 h): 38.6 IU/L
- AST (3 h): 69 IU/L
- BUN (3 h): 11.8 mg/dL
- CRE (3 h): 0.4 mg/dL
- Ca (3 h): 10.7 mg/dL
- Cl (3 h): 102.6 meq/L
- DBIL (3 h): 0.088 mg/dL
- GLC (3 h): 202.8 mg/dL
- IP (3 h): 9.5 mg/dL
- K (3 h): 3.8 meq/L
- LDH (3 h): 161.4 IU/L
- Na (3 h): 141.4 meq/L
- PL (3 h): 143.6 mg/dL
- RALB (3 h): 3.4 g/dL
- TBIL (3 h): 0.1 mg/dL
- TC (3 h): 79.4 mg/dL
- TG (3 h): 51.2 mg/dL
- TP (3 h): 5.5 g/dL
- gamma-GTP (3 h): 0.8 IU/L
- TERMINAL_BW (6 h): 221.9 g
- APTT (6 h): 19.3 s
- Bas (6 h): 0.8%
- Eos (6 h): 1%
- Fbg (6 h): 224.2 mg/dL
- Hb (6 h): 13.5 g/dL
- Ht (6 h): 40%
- Lym (6 h): 78.8%
- MCH (6 h): 21.3 pg
- MCHC (6 h): 33.7%
- MCV (6 h): 63.1 fL
- Mono (6 h): 2.4%
- Neu (6 h): 17.2%
- PT (6 h): 12.1 s
- Plat (6 h): 113 x10_4/uL
- RBC (6 h): 634 x10_4/ul
- Ret (6 h): 6.9%
- WBC (6 h): 114.1 x10_2/uL
- KIDNEY_L (6 h): 1 g
- KIDNEY_R (6 h): 1 g
- KIDNEY_TOTAL (6 h): 2 g
- LIVER (6 h): 10.2 g
- A/G (6 h): 1.6
- ALP (6 h): 872.2 IU/L
- ALT (6 h): 34.6 IU/L
- AST (6 h): 66 IU/L
- BUN (6 h): 10.6 mg/dL
- CRE (6 h): 0.4 mg/dL
- Ca (6 h): 10.9 mg/dL
- Cl (6 h): 102.2 meq/L
- DBIL (6 h): 0.086 mg/dL
- GLC (6 h): 200 mg/dL
- IP (6 h): 9.3 mg/dL
- K (6 h): 4 meq/L
- LDH (6 h): 147 IU/L
- Na (6 h): 140.8 meq/L
- PL (6 h): 143.2 mg/dL
- RALB (6 h): 3.4 g/dL
- TBIL (6 h): 0.1 mg/dL
- TC (6 h): 77.6 mg/dL
- TG (6 h): 76.6 mg/dL
- TP (6 h): 5.5 g/dL
- gamma-GTP (6 h): 1 IU/L
- TERMINAL_BW (9 h): 219.9 g
- APTT (9 h): 18.1 s
- Bas (9 h): 0.8%
- Eos (9 h): 1.2%
- Fbg (9 h): 215.6 mg/dL
- Hb (9 h): 13.2 g/dL
- Ht (9 h): 39.5%
- Lym (9 h): 77.6%
- MCH (9 h): 21.6 pg
- MCHC (9 h): 33.6%
- MCV (9 h): 64.3 fL
- Mono (9 h): 2%
- Neu (9 h): 18.4%
- PT (9 h): 12.6 s
- Plat (9 h): 113.5 x10_4/uL
- RBC (9 h): 614.2 x10_4/ul
- Ret (9 h): 6.6%
- WBC (9 h): 90.4 x10_2/uL
- KIDNEY_L (9 h): 1 g
- KIDNEY_R (9 h): 1 g
- KIDNEY_TOTAL (9 h): 2 g
- LIVER (9 h): 8.9 g
- A/G (9 h): 1.6
- ALP (9 h): 930.2 IU/L
- ALT (9 h): 33.2 IU/L
- AST (9 h): 71.4 IU/L
- BUN (9 h): 10.6 mg/dL
- CRE (9 h): 0.3 mg/dL
- Ca (9 h): 10.3 mg/dL
- Cl (9 h): 103.8 meq/L
- DBIL (9 h): 0.062 mg/dL
- GLC (9 h): 202.6 mg/dL
- IP (9 h): 9.9 mg/dL
- K (9 h): 3.8 meq/L
- LDH (9 h): 195.4 IU/L
- Na (9 h): 141.4 meq/L
- PL (9 h): 124 mg/dL
- RALB (9 h): 3.3 g/dL
- TBIL (9 h): 0.1 mg/dL
- TC (9 h): 68.8 mg/dL
- TG (9 h): 29.8 mg/dL
- TP (9 h): 5.4 g/dL
- gamma-GTP (9 h): 1.6 IU/L
- TERMINAL_BW (24 h): 238.9 g
- APTT (24 h): 19.4 s
- Bas (24 h): 0.8%
- Eos (24 h): 1%
- Fbg (24 h): 227.2 mg/dL
- Hb (24 h): 13.3 g/dL
- Ht (24 h): 39.7%
- Lym (24 h): 77.2%
- MCH (24 h): 21.1 pg
- MCHC (24 h): 33.6%
- MCV (24 h): 62.9 fL
- Mono (24 h): 3%
- Neu (24 h): 17.8%
- PT (24 h): 12 s
- Plat (24 h): 124.5 x10_4/uL
- RBC (24 h): 631.4 x10_4/ul
- Ret (24 h): 6.6%
- WBC (24 h): 82.1 x10_2/uL
- KIDNEY_L (24 h): 1.1 g
- KIDNEY_R (24 h): 1 g
- KIDNEY_TOTAL (24 h): 2.1 g
- LIVER (24 h): 11.8 g
- A/G (24 h): 1.5
- ALP (24 h): 1096 IU/L
- ALT (24 h): 42.8 IU/L
- AST (24 h): 84.8 IU/L
- BUN (24 h): 15.2 mg/dL
- CRE (24 h): 0.4 mg/dL
- Ca (24 h): 10.8 mg/dL
- Cl (24 h): 104.2 meq/L
- DBIL (24 h): 0.1 mg/dL
- GLC (24 h): 194.2 mg/dL
- IP (24 h): 7.7 mg/dL
- K (24 h): 4.3 meq/L
- LDH (24 h): 207.8 IU/L
- Na (24 h): 141 meq/L
- PL (24 h): 135.6 mg/dL
- RALB (24 h): 3.4 g/dL
- TBIL (24 h): 0.2 mg/dL
- TC (24 h): 68.6 mg/dL
- TG (24 h): 109.2 mg/dL
- TP (24 h): 5.6 g/dL
- gamma-GTP (24 h): 1.6 IU/L

Source: ChEMBL document CHEMBL3885861, “Open TG-GATES”
